Test results published in patent US8916573B2, “Quinazoline-2,4-dione derivatives” (Actelion Pharmaceuticals Ltd., priority 2011, dated 2014).
≈ marks a conversion by molar mass, not a printed value.

What follows are compounds tested on S. aureus 29213 (assay: Bacterial growth minimal inhibitory concentrations (microdilution, cation-adjusted Mueller-Hinton Broth, CLSI M7-A7)). Details: Staphylococcus aureus, 29213; microdilution in cation-adjusted Mueller-Hinton Broth.
Type: cell-based
Method: Bacterial Growth Minimal Inhibitory Concentrations: Minimal inhibitory concentrations (MICs; mg/l) were determined in cation-adjusted MuellerHinton Broth by a microdilution method following the description given in “Methods for Dilution Antimicrobial Susceptibility Tests for Bacteria that Grow Aerobically”, Approved standard, 7th ed., Clinical and Laboratory Standards Institute (CLSI) Document M7-A7, Wayne, Pa., USA, 2006. Typical antibacterial test results are given in Table 1 hereafter (MIC in mg/l).

| SMILES | MIC |
| --- | --- |
| Cn1c(=O)n(CCC[C@H]2CN(c3ccc4c(n3)NC(=O)CS4)C(=O)O2)c(=O)c2ccccc21 [Example 2, 1-methyl-3-{3-[(S)-2-oxo-3-(3-oxo-3,4-dihydro-2H-pyrido[3,2-b][1,4]thiazin-6-yl)-oxazolidin-5-yl]-propyl}-1H-quinazoline-2,4-dione] | ≤ 0.016 µg/mL |
| Cn1c(=O)n(CCCC[C@@H]2CN(c3ccc4c(n3)NC(=O)CO4)C(=O)O2)c(=O)c2ccccc21 [Example 52, 1-methyl-3-{4-[(R)-2-oxo-3-(3-oxo-3,4-dihydro-2H-pyrido[3,2-b][1,4]oxazin-6-yl)-oxazolidin-5-yl]-butyl}-1H-quinazoline-2,4-dione] | 0.063 µg/mL (≈ 0.135 µM) |
| COc1ccc2[nH]c(=O)n(CCC[C@@H]3CN(c4ccc5c(c4)NC(=O)CS5)C(=O)O3)c(=O)c2c1 [Example 34, 6-methoxy-3-{3-[(R)-2-oxo-3-(3-oxo-3,4-dihydro-2H-benzo[1,4]-thiazin-6-yl)-oxazolidin-5-yl]-propyl}-1H-quinazoline-2,4-dione] | 0.063 µg/mL (≈ 0.131 µM) |
| Cc1cccc2[nH]c(=O)n(CCC[C@@H]3CN(c4ccc5c(n4)NC(=O)CO5)C(=O)O3)c(=O)c12 [Example 9, 5-methyl-3-{3-[(R)-2-oxo-3-(3-oxo-3,4-dihydro-2H-pyrido[3,2-b][1,4]oxazin-6-yl)-oxazolidin-5-yl]-propyl}-1H-quinazoline-2,4-dione] | 0.031 µg/mL (≈ 0.0687 µM) |
| COC(=O)/C=C/c1ccc2c(=O)n(CCNC[C@H]3CN(c4ccc5c(c4)NC(=O)CS5)C(=O)O3)c(=O)n(C)c2c1 [Example 65, (E)-3-[1-methyl-2,4-dioxo-3-(2-{[(S)-2-oxo-3-(3-oxo-3,4-dihydro-2H-benzo[1,4]thiazin-6-yl)-oxazolidin-5-ylmethyl]-amino}-ethyl)-1,2,3,4-tetrahydro-quinazolin-7-yl]-acrylic acid methyl ester] | 0.125 µg/mL (≈ 0.221 µM) |
| O=C1CSc2ccc(N3C[C@H](CCCn4c(=O)[nH]c5c(Cl)cccc5c4=O)OC3=O)cc2N1 [Example 29, 8-chloro-3-{3-[(S)-2-oxo-3-(3-oxo-3,4-dihydro-2H-benzo[1,4]-thiazin-6-yl)-oxazolidin-5-yl]-propyl}-1H-quinazoline-2,4-dione] | ≤ 0.016 µg/mL |

Second part, the compound after the results:

| MIC | SMILES |
| --- | --- |
| ≤ 0.016 µg/mL | O=C1CSc2ccc(N3C[C@H](CCCn4c(=O)[nH]c5ccccc5c4=O)OC3=O)cc2N1 [Example 1, 3-{3-[(S)-2-oxo-3-(3-oxo-3,4-dihydro-2H-benzo[1,4]thiazin-6-yl)-oxazolidin-5-yl]-propyl}-1H-quinazoline-2,4-dione] |
| 0.031 µg/mL (≈ 0.0657 µM) | O=C1COc2ccc(N3C[C@@H](CCCn4c(=O)[nH]c5c(Cl)cccc5c4=O)OC3=O)nc2N1 [Example 23, 8-chloro-3-{3-[(R)-2-oxo-3-(3-oxo-3,4-dihydro-2H-pyrido[3,2-b][1,4]oxazin-6-yl)-oxazolidin-5-yl]-propyl}-1H-quinazoline-2,4-dione] |
| 0.031 µg/mL (≈ 0.0664 µM) | O=C1CSc2ccc(N3CC(CCCCn4c(=O)[nH]c5ccccc5c4=O)OC3=O)cc2N1 (racemic) [Example 48, rac-3-{4-[2-oxo-3-(3-oxo-3,4-dihydro-2H-benzo[1,4]thiazin-6-yl)-oxazolidin-5-yl]-butyl}-1H-quinazoline-2,4-dione] |
| ≤ 0.016 µg/mL | O=C1CSc2ccc(N3C[C@H](CNCCn4c(=O)c5cccc6c5n(c4=O)CCC6)OC3=O)nc2N1 [Example 67, 2-(2-{[(S)-2-oxo-3-(3-oxo-3,4-dihydro-2H-pyrido[3,2-b][1,4]thiazin-6-yl)-oxazolidin-5-ylmethyl]-amino}-ethyl)-6,7-dihydro-5H-pyrido[3,2,1-ij]quinazoline-1,3-dione] |
| ≤ 0.016 µg/mL | Cn1c(=O)n(CCCC[C@@H]2CN(c3ccc4c(n3)NC(=O)CS4)C(=O)O2)c(=O)c2ccccc21 [Example 51, 1-methyl-3-{4-[(R)-2-oxo-3-(3-oxo-3,4-dihydro-2H-pyrido[3,2-b][1,4]thiazin-6-yl)-oxazolidin-5-yl]-butyl}-1H-quinazoline-2,4-dione] |
